{"source": "patent US5872107A", "about": "“Treatment of urogenital cancer with boron neutron capture therapy” (Emory University, priority 1997, dated 1999)", "key": {"[1]": {"assay": "Partition coefficient of CDU in octanol:phosphate buffer (pH 7.4)", "type": "physicochemical", "method": "The partition coefficient (P) of CDU was determined in octanol:phosphate buffer (pH 7.4). The octanol and aqueous phases were equilibrated by shaking together for 1 hour at 20° C. Two milliliters (2 ml) of octanol containing 0.5 mg/ml of CDU were shaken with 4 ml of buffer on a horizontal shaker for 12, hour at 25° C. Tubes were centrifuged to separate the phases and both phases were analyzed by HPLC as described below. The partition coefficient was calculated by dividing the CDU concentration in octanol by the CDU concentration in buffer. Results are reported as log P values.\nThe average octanol:phosphate buffer, pH 7.4, P value was determined to be 3090."}, "[2]": {"assay": "Pharmacokinetics of CDU in plasma after intravenous administration of 25 mg/kg to rats", "type": "in vivo, Sprague-Dawley rats", "method": "5-Carboranyl-2'-deoxyuridine (CDU) was synthesized by the method of Yamamoto, et al. The chemical purity, confirmed by ^1 H NMR spectral and high-pressure liquid chromatography (HPLC) analysis, was greater than 98%. For intravenous administration, CDU was dissolved in dimethylsulfoxide (DMSO). Internal standard, progesterone, and β-glucuronidase were purchased from Sigma Chemical Company (St. Louis, Mo.). Methanol, HPLC grade, and all other chemicals, analytical grade, were obtained from J. T. Baker (Phillipsburg, N.J.). Partition coefficients were determined one hour after administration.\nFive adult male Sprague-Dawley (Harlan Laboratories, Indianapolis, Ind.) rats weighing 303±8 g (mean±SD) were used for the pharmacokinetic study. Rats were housed in a 12 hour light/12 hour dark, constant temperature (22° C.) environment with free access to standard laboratory chow and water. Animals were acclimatized to this environment for one week before the experiment. External jugular vein cannulas were implanted under ketamine:acepromazine:xylazine (50:3.3:3.3 mg/kg) anesthesia the day before the experiment. Rats were fasted overnight, however, water was available ad libitum.\n(§1) On the morning of the experiment, rats were placed in individual metabolism cages. CDU […]) was administered intravenously in 0.1 ml of DMSO to the rats over a one minute period. Blood samples (0.35 ml) were collected prior to and at […], 2, 3, 4, 5, 6, 7 and 8 hour after CDU administration from the cannula into heparinized polypropylene microcentrifuge tubes. Blood volume was replaced with an equal volume of normal saline. Blood samples were immediately centrifuged at 2000 g for 5 minutes and plasma was separated and frozen at -20° C. until analysis. Urine was collected for 24 hour following CDU administration. Urine volume was measured and samples were frozen at -20° C. until analysis.\nConcentrations of CDU in plasma, brain, and urine were determined by HPLC. For the determination of CDU in brain, the brain tissue was homogenized in a 1:2 (g:ml) ratio with isotonic sodium phosphate buffer, pH 7.4. To 200 μl of plasma or brain homogenate in a glass test tube, 50 μl of internal standard (20 μg/ml progesterone) and 5 ml of methylene chloride was added. Tubes were shaken for 15 minutes at low speed on a shaker, centrifuged for 5 minutes at 2000 rpm, and the plasma layer was aspirated off using a vacuum system. The remaining methylene chloride was transferred to a glass culture tube and evaporated to dryness under a stream of nitrogen gas at ambient temperature. The residue was reconstituted with 250 μl of methanol and injected onto HPLC system.\nChromatography was performed on a Hypersil ODC column (5 μm particle size, 4.6×150 mm; Alltech Associates Inc., Deerfield, Ill.) with an online guard column and an isocratic mobile phase of 65% methanol in 10 mM monobasic potassium phosphate, pH 6.3 at a flow rate of 1.5 ml/min. Compounds were detected at a UV wavelength of 274 nm with a detector range setting of 0.005 absorbance units, full scale.\nThe retention times of CDU and internal standard were 4.7 and 8.6 min, respectively. Sample CDU concentrations were calculated from the slope of calibration plots of the peak area ratio of CDU:internal standard versus standard CDU concentrations. The slopes and intercepts were generated using weighted (1/x^2) least-squares regression analysis. Standard curves were linear in the range of 0.1 μg/ml to 50 μg/ml. The intra- and inter-day relative standard deviations over the range of standard concentrations in all biological media were less than 10%. The extraction recoveries of CDU and progesterone were 99% and 95%, respectively.\nArea/moment analysis was used to calculate pharmacokinetic parameters of CDU. […]"}, "[3]": {"assay": "Plasma protein binding of CDU by equilibrium dialysis", "type": "in vitro ADME, rat", "method": "Protein binding was determined by equilibrium dialysis. Various amounts of CDU were added to drug free rat plasma to yield CDU concentrations ranging from 0.5 to 100 μg/ml. Plexiglass dialysis cells and dialysis membrane (Spectrapor II, Spectrum Medical Industries, Los Angeles, Calif.) were used. Plasma (0.8 ml) containing different concentrations of CDU was dialyzed against 0.8 ml of isotonic sodium phosphate buffer, pH 7.4, in a shaking water bath at 37° C. for 16 hours. The post-dialysis plasma and buffer volumes were measured and samples were frozen at -20° C. until analysis. The binding data was corrected for fluid shifts that occurred during dialysis. Experiments were performed in duplicate.\nThis concentration range encompassed those observed following intravenous administration of 25 mg/kg CDU to rats. Assuming that the lipophilic compound CDU is bound predominantly by hydrophobic interactions to albumin, the equilibrium association constant for the protein binding of CDU was approximately 4×10^4 M^-1."}, "[4]": {"assay": "Urinary excretion of unchanged CDU and CDU glucuronide", "type": "in vivo, Sprague-Dawley rats", "method": "as §1\nFor the determination of unchanged CDU in urine, urine samples were diluted 1:50 with distilled deionized water and 100 μl of internal standard (50 μg/ml progesterone) was added and injected onto the HPLC. Concentrations of CDU glucuronide in urine were determined after hydrolyzing the glucuronate with β-glucuronidase as previously described. Glucuronide concentrations were calculated as the difference between CDU concentrations measured after hydrolysis and before hydrolysis with β-glucuronidase."}, "[5]": {"conditions": "25 mg/kg i.v., rats, total plasma concentrations, 25 mg/kg"}, "[6]": {"conditions": "25 mg/kg i.v., individual rat, 25 mg/kg"}, "[7]": {"conditions": "25 mg/kg i.v., individual rat, unbound"}, "[8]": {"conditions": "25 mg/kg i.v., mean of five rats"}, "[9]": {"conditions": "25 mg/kg i.v., mean of five rats, unbound"}}, "note": "Values joined by “and” are separate entries in the source; they are usually repeats but may differ in a detail not shown here. Equal values may be shown once. “Also recorded” adds a separate entry of the source.", "data": [{"substance": "5-carboranyl-2'-deoxyuridine [CDU]", "values": [{"measurement": "lipophilicity (in words)", "setting": "[1]", "value": "highly lipophilic"}, {"measurement": "log P", "setting": "[1]", "value": 3.49}, {"measurement": "decline of plasma concentrations (in words)", "setting": "[2]; 25 mg/kg i.v., rats", "value": "declined in a biexponential fashion"}, {"measurement": "volume of distribution based on unbound CDU concentrations", "setting": "[2]; 25 mg/kg i.v., rats", "value": 15.5, "unit": "kg⁻¹"}, {"measurement": "clearance based on unbound plasma CDU concentrations (CLf)", "setting": "[2]; 25 mg/kg i.v., rats, average", "value": "255.5 ± 74 mL/min/kg and 255 mL/min/kg"}, {"measurement": "terminal half-life", "setting": "[2]; 25 mg/kg i.v., rats, mean±SD", "value": "1.26 ± 0.28", "unit": "h"}, {"measurement": "steady-state volume of distribution", "setting": "[2]; [5]", "value": "0.70 ± 0.23 kg⁻¹ and 0.7 kg⁻¹"}, {"measurement": "total clearance", "setting": "[2]; [5]", "value": "11.5 ± 3.3 mL/min/kg and 11.5 mL/min/kg"}, {"measurement": "AUC, individual rats", "setting": "[2]; [6]", "value": "32.39 mg h 1^-1 and 25.14 mg h 1^-1 and 44.68 mg h 1^-1 and 42.49 mg h 1^-1 and 47.28 mg h 1^-1"}, {"measurement": "CLT, individual rats", "setting": "[2]; [6]", "value": "0.77 1 h^-1 kg^-1 and 0.99 1 h^-1 kg^-1 and 0.56 1 h^-1 kg^-1 and 0.59 1 h^-1 kg^-1 and 0.53 1 h^-1 kg^-1"}, {"measurement": "MRT, individual rats", "setting": "[2]; [6]", "value": "1.17 h and 0.51 h and 0.81 h and 1.64 h and 1.24 h"}, {"measurement": "V33 (steady-state volume of distribution), individual rats", "setting": "[2]; [6]", "value": "0.90 1 kg^-1 and 0.51 1 kg^-1 and 0.45 1 kg^-1 and 0.97 1 kg^-1 and 0.65 1 kg^-1"}, {"measurement": "t1/2, individual rats", "setting": "[2]; [6]", "value": "1.46 h and 1.20 h and 0.81 h and 1.54 h and 1.28 h"}, {"measurement": "CLf, individual rats", "setting": "[2]; [7]", "value": "17.15 1 h^-1 kg^-1 and 22.33 1 h^-1 kg^-1 and 12.36 1 h^-1 kg^-1 and 13.07 1 h^-1 kg^-1 and 11.76 1 h^-1 kg^-1"}, {"measurement": "Vss,f, individual rats", "setting": "[2]; [7]", "value": "20.02 1 kg^-1 and 11.29 1 kg^-1 and 10.09 1 kg^-1 and 21.56 1 kg^-1 and 14.53 1 kg^-1"}, {"measurement": "AUC, mean", "setting": "[2]; [8]", "value": 38.39, "unit": "mg h 1^-1"}, {"measurement": "MRT, mean", "setting": "[2]; [8]", "value": 1.07, "unit": "h"}, {"measurement": "V33 (steady-state volume of distribution), mean", "setting": "[2]; [8]", "value": "0.70 1 kg^-1"}, {"measurement": "t1/2, mean", "setting": "[2]; [8]", "value": 1.26, "unit": "h"}, {"measurement": "CLf, mean", "setting": "[2]; [9]", "value": "15.33 1 h^-1 kg^-1"}, {"measurement": "Vss,f, mean", "setting": "[2]; [9]", "value": "15.50 1 kg^-1"}, {"measurement": "metabolic intrinsic clearance of free drug", "setting": "[2]; estimated, unbound drug", "value": 333, "unit": "mL/min/kg"}, {"measurement": "concentration dependence of plasma protein binding (in words)", "setting": "[3]; 0.5 μg/ml to 100 μg/ml", "value": "independent of the nucleoside concentration; also recorded: in a linear manner"}, {"measurement": "bound to plasma proteins", "setting": "[3]; 0.5 μg/ml to 100 μg/ml, rat plasma, 960 min", "value": 95.5, "unit": "%"}, {"measurement": "equilibrium association constant for the protein binding", "setting": "[3]; assuming binding predominantly to albumin, 960 min", "value": "approximately 4×10^4 M^-1"}, {"measurement": "average fraction bound to the plasma proteins", "setting": "[3]; rat plasma, 37° C., pH 7.4, 960 min", "value": "0.95±0.02"}, {"measurement": "unchanged CDU in urine (in words)", "setting": "[4]; 24 hours following 25 mg/kg i.v.", "value": "No unchanged CDU was detected in urine; also recorded: No unchanged CDU was recovered in urine"}, {"measurement": "renal excretion (in words)", "setting": "[4]; rat", "value": "not renally excreted to any significant extent"}, {"measurement": "renal tubular reabsorption (in words)", "setting": "[4]; rat, inferred from absence of unchanged CDU in urine", "value": "virtually complete renal tubular reabsorption"}, {"measurement": "CDU glucuronide in urine (in words)", "setting": "[4]; urine treated with β-glucuronidase, 25 mg/kg i.v., 25 mg/kg", "value": "no trace of CDU glucuronide in urine; also recorded: no glucuronide metabolites were detected in urine samples"}]}]}
